Ki and IC50 data for eleven molecules are collected here from publication PMC2699512 (Nucleic Acids Research, 2009).

SMILES strings stand for the structures.

Assay [1] addresses T1, yeast RNA triphosphatase (Cet1; S. cerevisiae RTPase) (Saccharomyces cerevisiae, UniProt O13297).
T1 sequence (O13297 2-549): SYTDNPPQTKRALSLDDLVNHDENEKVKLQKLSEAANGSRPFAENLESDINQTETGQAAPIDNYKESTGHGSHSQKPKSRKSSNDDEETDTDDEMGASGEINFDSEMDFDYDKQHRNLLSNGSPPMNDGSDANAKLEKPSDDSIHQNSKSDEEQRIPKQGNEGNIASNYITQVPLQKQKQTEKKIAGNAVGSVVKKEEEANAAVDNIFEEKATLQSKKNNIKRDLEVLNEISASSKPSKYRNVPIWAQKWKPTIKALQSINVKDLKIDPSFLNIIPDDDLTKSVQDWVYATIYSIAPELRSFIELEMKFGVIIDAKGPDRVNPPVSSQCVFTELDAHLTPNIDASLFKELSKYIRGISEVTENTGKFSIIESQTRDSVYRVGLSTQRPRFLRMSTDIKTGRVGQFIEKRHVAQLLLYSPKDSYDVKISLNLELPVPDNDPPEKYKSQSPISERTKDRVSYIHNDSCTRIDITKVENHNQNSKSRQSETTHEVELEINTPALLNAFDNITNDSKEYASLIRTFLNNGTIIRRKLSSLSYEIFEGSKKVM
Put plainly: GTPase inhibition kinetics, TLC. It counts as biochemical.

Assay [2] deals with T1, yeast RNA triphosphatase (Cet1; S. cerevisiae RTPase). Put plainly: inhibition of [γ-32P]GTP hydrolysis, TLC of released phosphate. It is filed as biochemical.

By Ki is commonly meant a measure of affinity in units of concentration, obtained from inhibition or displacement. Read a high Ki as a looser hold on the target. The term IC50 denotes the concentration that inhibits the measured activity by half. Molecule `O=c1[nH]c(=O)c2ncn([C@@H]3O[C@H](COP(=O)(O)OP(=O)(O)OP(=O)(O)O)[C@@H](O)[C@H]3O)c2[nH]1` [A-8] registered an inhibition constant Ki in assay [1] of 1800 nM. For the same molecule, in assay [2], the half-maximal inhibitory concentration (IC50) was 10 µM.
The like results for `O=P(O)(O)OP(=O)(O)OP(=O)(O)OC[C@H]1O[C@@H](n2cnc3c(Cl)ncnc32)[C@H](O)[C@@H]1O` [A-11] were, in that order, 400 nM and 2 µM.
The like results for `Nc1nc(Cl)c2ncn([C@@H]3O[C@H](COP(=O)(O)OP(=O)(O)OP(=O)(O)O)[C@@H](O)[C@H]3O)c2n1` [A-6] were, in that order, 9600 nM and 53 µM.
`Nc1nc2c(ncn2[C@@H]2O[C@H](COP(=O)(O)OP(=O)(O)OP(=O)(O)O)[C@@H](O)[C@H]2O)c(=O)[nH]1` [GTP] displayed an inhibitory constant (Ki) in assay [1] of 16000 nM. In assay [2], the IC50 was determined as 87 µM.
For `Nc1nc2c(ncn2[C@@H]2O[C@H](COP(=O)(O)OP(=O)(O)OP(=O)(O)O)[C@@H](O)[C@H]2O)c(=S)[nH]1` [A-9], the Ki in assay [1] is 2900 nM. Also, the IC50 in assay [2] came to 16 µM.
The like results for `Cn1c(N)nc2c(ncn2[C@@H]2O[C@H](COP(=O)(O)OP(=O)(O)OP(=O)(O)O)[C@@H](O)[C@H]2O)c1=O` [A-4] were, in that order, 1500 nM and 8.1 µM.
As to `O=P(O)(O)OP(=O)(O)OP(=O)(O)O` [Tripoly-PO4], the IC50 in assay [2] is 0.4 µM.
With `Nc1nc2c(ncn2[C@H]2C[C@H](O)[C@@H](COP(=O)(O)OP(=O)(O)OP(=O)(O)O)O2)c(=O)[nH]1` [dGTP], affinity in assay [1] was put at a Ki of 14000 nM. Moreover, in assay [2], the IC50 stood at 76 µM.
`COc1nc(N)nc2c1ncn2[C@@H]1O[C@H](COP(=O)(O)OP(=O)(O)OP(=O)(O)O)[C@@H](O)[C@H]1O` [A-5] came in with an inhibitory constant (Ki) in assay [1] of 27000 nM. The IC50 in assay [2] was 150 µM.
The like results for `Nc1nc2c(ncn2[C@H]2CC[C@@H](COP(=O)(O)OP(=O)(O)OP(=O)(O)O)O2)c(=O)[nH]1` [A-12] were, in that order, 1100 nM and 6.1 µM.
For the molecule `O=P(O)(O)OP(=O)(O)OP(=O)(O)OC[C@H]1O[C@@H](n2cnc3c(S)ncnc32)[C@H](O)[C@@H]1O` [A-18], the IC50 in assay [2] was found to be 8.1 µM.
